Paper PMC5517026, “Crystal structure and functional characterization of an isoaspartyl dipeptidase (CpsIadA) from Colwellia psychrerythraea strain 34H” (PLoS ONE, 2017)
Where a SMILES comes first, the peptide text is derived from it.

Legend:
CpsIadA [1] = biological target: T1, CpsIadA (Colwellia psychrerythraea, UniProt Q484B6); experiment: coupled spectrophotometric assay (aspartate aminotransferase/malate dehydrogenase, NADH at […] nm); format: biochemical; conditions: 100 mM HEPES pH 8.0, 100 mM KCl, 30°C
T1 construct: gene iadA; Ni-NTA and gel filtration; homo-octamer (314 kDa by AUC), two Zn ions per active site

CpsIadA [2] = biological target: T1, CpsIadA; experiment: coupled assay with L-alanine dehydrogenase/diaphorase, INT reduction at […] nm; format: biochemical; conditions: 100 mM HEPES pH 8.0, 1.5 mM INT, 1.5 mM NAD+, 30°C
CpsIadA [3] = biological target: T2, CpsIadA (Colwellia psychrerythraea, UniProt Q484B6, E80Q, form not given); experiment: X-ray crystal structure of the complex ([…] Å); format: binding; conditions: active site, two Zn ions; 5 mM ligand added before crystallization; catalytically inactive mutant
T2 construct: gene iadA; Ni-NTA and gel filtration; homo-octamer (314 kDa by AUC), two Zn ions per active site

[4] = biological target: CpsIadA E80Q mutant (Colwellia psychrerythraea strain 34H) (UniProt Q484B6); experiment: crystal structure; CpsIadA E80Q mutant with 5 mM β-aspartyl lysine, 2.33 Å, space group P4212, two monomers in the asymmetric unit; 0.1 M Bis-Tris propane pH 7.0, 1 M ammonium citrate tribasic pH 7.0, 293 K
[5] = biological target: isoaspartyl dipeptidase from Colwellia psychrerythraea strain 34H (CpsIadA), wild type (Colwellia psychrerythraea strain 34H) (UniProt Q484B6); experiment: AUC; sedimentation velocity, 20°C, 0.5 mg/mL CpsIadA, 25 mM Tris-HCl pH 8.0, 200 mM NaCl, 5 mM MgCl2, 2 mM dithiothreitol, 45,000 rpm, SEDFIT; self-association (octamer)
[6] = biological target: isoaspartyl dipeptidase from Colwellia psychrerythraea strain 34H (CpsIadA), wild type (Colwellia psychrerythraea strain 34H) (UniProt Q484B6); experiment: crystal structure; ligand-free wild type CpsIadA, 1.85 Å, space group P4212, two monomers in the asymmetric unit; 0.1 M Bis-Tris propane pH 7.0, 1.4 M sodium malonate, 293 K
[7] = biological target: isoaspartyl dipeptidase from Colwellia psychrerythraea strain 34H (CpsIadA), wild type (Colwellia psychrerythraea strain 34H) (UniProt Q484B6); experiment: SEC; analytical size-exclusion chromatography; conditions not given; self-association (octamer)

T1 sequence (Q484B6 entry or part of it): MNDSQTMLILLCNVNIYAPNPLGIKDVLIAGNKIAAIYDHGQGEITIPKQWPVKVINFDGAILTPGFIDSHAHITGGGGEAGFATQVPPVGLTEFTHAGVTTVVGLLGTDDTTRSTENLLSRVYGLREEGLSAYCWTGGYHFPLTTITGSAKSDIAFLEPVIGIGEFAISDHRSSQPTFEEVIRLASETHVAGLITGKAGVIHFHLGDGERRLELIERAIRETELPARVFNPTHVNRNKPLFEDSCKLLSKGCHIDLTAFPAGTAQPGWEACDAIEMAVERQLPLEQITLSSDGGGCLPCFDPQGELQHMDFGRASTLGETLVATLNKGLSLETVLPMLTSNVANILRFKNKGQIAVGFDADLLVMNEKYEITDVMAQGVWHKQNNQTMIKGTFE
T2 sequence (Q484B6 entry or part of it E80Q, form open): as the sequence (Q484B6 entry or part of it) above, with E80Q counted along it

Row | Km (CpsIadA [1]) [µM] | Compound | also measured
1 | 4700 ± 400 | N[C@@H](CC(=O)NCC(=O)O)C(=O)O [β-Asp-Gly] | –
2 | 5300 ± 500 | N[C@@H](CC(=O)N[C@@H](Cc1c[nH]cn1)C(=O)O)C(=O)O [β-Asp-His] | –
3 | 710 ± 80 | CC(C)C[C@H](NC(=O)C[C@H](N)C(=O)O)C(=O)O [β-Asp-Leu] | –
4 | 1100 ± 90 | NCCCC[C@H](NC(=O)C[C@H](N)C(=O)O)C(=O)O [β-Asp-Lys] | X-ray crystal structure of the complex (2.33 Å) (CpsIadA [3]): β-isoaspartyl lysine bound CpsIadA E80Q mutant have been deposited in the Protein Data Bank
5 | 490 ± 90 | N[C@@H](CC(=O)N[C@@H](Cc1ccccc1)C(=O)O)C(=O)O [β-Asp-Phe] | –

Further lines, the compound ahead of its results:

Row | Compound | Km (CpsIadA [1]) [µM] | also measured
6 | CC(C)C[C@H](NC(=O)[C@@H](N)CC(=O)O)C(=O)O [α-Asp-Leu] (H-Asp-Leu-OH) | 6900 ± 400 | –
7 | C[C@H](NC(=O)CCN)C(=O)O [β-Ala-Ala] | – | Km (CpsIadA [2]): 930 ± 300 µM
8 | C[C@H](NC(=O)C[C@H](N)C(=O)O)C(=O)O [β-Asp-Ala] | 1200 ± 300 | –
9 | CpsIadA E80Q mutant (from UniProt Q484B6 1-395) (enzyme) | – | stoichiometry N [4]: 8
10 | isoaspartyl dipeptidase from Colwellia psychrerythraea strain 34H (CpsIadA), wild type (from UniProt Q484B6 1-395) (enzyme) | – | stoichiometry N [5]: 8; stoichiometry N [6]: 8; stoichiometry N [7]: 8
